The target of data set [1] is T1, Stimulator of interferon genes protein (Homo sapiens, UniProt Q86WV6). As to the kind of experiment: Agonist activity at STING in human THP1-Dual cells assessed as fold change in ISG activation at 10 uM incubated for 24 hrs by Quanti-luc reagent based assay relative to control. The data set is classed as cell-based. The following applies: filed as agonist.
Data set [2] concerns the target T2, Stimulator of interferon genes protein (Mus musculus) (UniProt Q3TBT3).
T2 sequence (whole entry): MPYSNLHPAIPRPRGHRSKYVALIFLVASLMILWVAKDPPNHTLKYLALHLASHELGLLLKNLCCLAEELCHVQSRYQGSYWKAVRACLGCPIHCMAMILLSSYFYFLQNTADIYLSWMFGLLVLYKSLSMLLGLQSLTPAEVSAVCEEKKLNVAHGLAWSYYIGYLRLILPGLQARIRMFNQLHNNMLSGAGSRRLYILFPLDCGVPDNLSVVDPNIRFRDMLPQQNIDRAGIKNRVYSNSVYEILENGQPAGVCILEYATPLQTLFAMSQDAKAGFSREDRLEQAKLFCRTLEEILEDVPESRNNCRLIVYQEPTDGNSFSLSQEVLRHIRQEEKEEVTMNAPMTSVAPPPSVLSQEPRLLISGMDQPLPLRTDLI
Description: Agonist activity at STING in mouse RAW-Lucia ISG cells assessed as fold change in ISG activation at 50 uM incubated for 24 hrs by Quanti-luc reagent based assay relative to control. The data set is classed as cell-based. Particulars: filed as agonist.

In data set [3] the target is T1, Stimulator of interferon genes protein. As to the kind of experiment: Agonist activity at STING in human THP-1 cells. It counts as cell-based.
Data set [4] has the same target. As to the kind of experiment: Agonist activity at STING in human THP1-Dual cells assessed as ISG activation incubated for 24 hrs by Quanti-luc reagent based assay. The data set is classed as cell-based.
For data set [5], the target named is T3, Stimulator of interferon genes protein (Mus musculus, UniProt Q3TBT3).
T3 sequence (Q3TBT3 whole entry): T2 sequence (whole entry)
As to the kind of experiment: Agonist activity at STING in mouse RAW-Lucia ISG cells assessed as ISG activation incubated for 24 hrs by Quanti-luc reagent based assay. It counts as cell-based.

A short description of data set [6]: Half life in BALB/c mouse at 1 mg/kg, iv measured up to 24 hrs by UPLC-MS/MS analysis. The data set is classed as ADME, organism-based. The following applies: in vivo.
A short description of data set [7]: AUClast in BALB/c mouse at 1 mg/kg, iv measured up to 24 hrs by UPLC-MS/MS analysis. Particulars: in vivo. The data set is classed as ADME, organism-based. On the set-up: time < 24 hrs, dose 1 mg/kg, route iv.
Data set [8] is described as follows: Observed AUC infinity in BALB/c mouse at 1 mg/kg, iv measured up to 24 hrs by UPLC-MS/MS analysis. It counts as ADME, organism-based. On the set-up: dose 1 mg/kg, time < 24 hrs, route iv. The following applies: in vivo.
Data set [9] is described as follows: Observed clearance in BALB/c mouse at 1 mg/kg, iv measured up to 24 hrs by UPLC-MS/MS analysis. It counts as ADME, organism-based. Particulars: in vivo.
The nature of data set [10]: Observed volume of distribution at steady state in BALB/c mouse at 1 mg/kg, iv measured up to 24 hrs by UPLC-MS/MS analysis. The data set is classed as ADME, organism-based. Particulars: in vivo, read-out: Vdss.
Data set [11] has as its target T1, Stimulator of interferon genes protein. As to the kind of experiment: Agonist activity at STING (unknown origin).
The nature of data set [12]: Agonist activity at human STING R232H mutant.
In data set [13] the target is T1, Stimulator of interferon genes protein. As to the kind of experiment: Activation of STING pathway in human THP1-Dual cells assessed as increase in IFNbeta expression level at 0.01 to 1 uM measured for 24 hrs by chemiluminescence based analysis. It counts as cell-based. The following applies: filed as activator, dose 0.01-1 µM.
Data set [14] has the same target. Description: Activation of STING pathway in human THP1-Dual cells assessed as increase in IFNbeta expression level at 0.1 uM measured for 24 hrs by chemiluminescence based analysis. The data set is classed as cell-based. Particulars: filed as activator.
For data set [15] the target is unchanged. As to the kind of experiment: Activation of STING pathway in human THP1-Dual cells assessed as increase in IP-10 expression level at 0.01 to 1 uM measured for 24 hrs by chemiluminescence based analysis. It counts as cell-based. The following applies: filed as activator, dose 0.01-1 µM.
The target is the same in data set [16]. As to the kind of experiment: Activation of STING pathway in human THP1-Dual cells assessed as increase in IP-10 expression level at 0.1 uM measured for 24 hrs by chemiluminescence based analysis. It counts as cell-based. Particulars: filed as activator.
The target is the same in data set [17]. As to the kind of experiment: Activation of STING pathway in human 293T-Dual hSTING-H232 cells assessed as increase in IFNbeta expression level measured for 24 hrs by SEAP reporter based Quanti-luc assay. The data set is classed as cell-based. The following applies: filed as activator, dose 0.01-1 µM, DDE = dose-dependent effect.
The target is the same in data set [18]. Description: Activation of STING pathway in human 293T-Dual hSTING-H232 cells assessed as increase in ISG expression level measured for 24 hrs by SEAP reporter based Quanti-luc assay. It counts as cell-based. Particulars: filed as activator, dose 0.01-1 µM, DDE = dose-dependent effect.
For data set [19] the target is unchanged. Description: Inhibition of human wild type STING.
The target is the same in data set [20]. Description: Agonist activity at wild type human STING in HEK cells. The data set is classed as cell-based.

Active and inactive are the calls of the source. The rule behind the calls is not given here.

T1 sequence (Q86WV6 whole entry): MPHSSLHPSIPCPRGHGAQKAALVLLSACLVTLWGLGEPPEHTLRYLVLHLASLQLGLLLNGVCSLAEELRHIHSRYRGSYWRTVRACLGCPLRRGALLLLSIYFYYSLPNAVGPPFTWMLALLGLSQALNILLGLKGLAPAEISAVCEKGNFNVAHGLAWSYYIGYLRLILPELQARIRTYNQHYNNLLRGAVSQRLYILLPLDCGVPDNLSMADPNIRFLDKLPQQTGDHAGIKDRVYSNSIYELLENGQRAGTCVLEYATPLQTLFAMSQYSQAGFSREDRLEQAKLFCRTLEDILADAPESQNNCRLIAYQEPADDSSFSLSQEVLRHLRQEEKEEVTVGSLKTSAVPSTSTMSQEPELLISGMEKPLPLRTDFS

`CCn1nc(C)cc1C(=O)Nc1nc2cc(NC(C)=O)ccc2n1CCCCn1c(NC(=O)c2cc(C)nn2CC)nc2cc(C(N)=O)cc(OCCCN3CCOCC3)c21`: the fold change (FC) was determined as 2.32 in data set [1] and 1.18 in [2].
In [3], `O=C(Nc1cc(F)c(F)cc1C(=O)O)c1ccc(N2C=CNC2)nn1` showed an EC50 of 2100 nM.
As to `CCn1nc(C)cc1C(=O)Nc1nc2cc(C(N)=O)sc2n1CCCCn1c(NC(=O)c2cc(C)nn2CC)nc2cc(C(N)=O)cc(OCCCN3CCOCC3)c21`, the fold change (FC) in data set [1] was 8.42; in data set [2], 0.64.
In the case of `CCn1nc(C)cc1C(=O)Nc1nc2cc(C(N)=O)sc2n1CCCCn1c(NC(=O)c2cc(C)nn2CC)nc2cc(C(N)=O)sc21`, the fold change (FC) in data set [1] came out at 1.15; in data set [2], 2.63.
Take `CCn1nc(C)cc1C(=O)Nc1nc2cc(C(N)=O)sc2n1C/C=C/Cn1c(NC(=O)c2cc(C)nn2CC)nc2cc(C(N)=O)cc(OCC3CC3)c21`: the fold change (FC) was 141 in [1] and 12.6 in data set [2]. In addition, the results for the EC50 in data set [4] and in data set [5] were 280 nM and greater than 100000 nM, respectively.
Compound `CCn1nc(C)cc1C(=O)Nc1nc2cc(C(N)=O)cc(OC)c2n1C/C=C/Cn1c(NC(=O)c2cc(C)nn2CC)nc2cc(C(N)=O)cc(OCCCN3CCOCC3)c21` showed a half-life in data set [6] of 1.14 h. The area under the curve AUC(0-t) at 24 h in data set [7] came out at 657 ng·h/mL. The compound also registered an AUC(0-inf) in data set [8] of 666 ng·h/mL. For the same compound, the clearance in data set [9] is 26 mL/min/kg. Besides, the Vd in data set [10] is 0.965 L/kg.
Regarding `CCn1nc(C)cc1C(=O)Nc1nc2cc(C(N)=O)sc2n1C/C=C/Cn1c(NC(=O)c2cc(C)nn2CC)nc2cc(C(N)=O)cc(OC(C)C)c21`, the fold change (FC) stood at 60.4 in data set [1] and 13.5 in data set [2]. The EC50 in data set [4] is 5820 nM; in data set [5], 63700 nM.
As to `CCn1nc(C)cc1C(=O)Nc1nc2cc(NC(=O)CN)ccc2n1CCCCn1c(NC(=O)c2cc(C)nn2CC)nc2cc(C(N)=O)cc(OCCCN3CCOCC3)c21`, the fold change (FC) in [1] stood at 11; in data set [2] it was 1.39.
Turning to `Nc1ncnc2c1ncn2[C@@H]1O[C@@H]2COP(=O)(O)O[C@H]3[C@@H](O)[C@H](n4cnc5c(N)ncnc54)O[C@@H]3COP(=O)(O)O[C@H]2[C@H]1O`, in data set [11], the midpoint of the response, the EC50, lay at 51.3 nM.
In data set [12], `CCn1nc(C)cc1C(=O)/N=c1\[nH]c2cc(C(N)=O)cc(OC)c2n1C/C=C/Cn1/c(=N/C(=O)c2cc(C)nn2CC)[nH]c2cc(C(N)=O)cc(OCCCN3CCOCC3)c21` displayed a half-maximal effective concentration (EC50) of 200 nM. Also, the outcome in [13], in data set [14], in [15] and in [16] was Active. In addition, the Activity result in data set [17] and in data set [18] was “Dde” each time.
The compound `O=C(c1ccc([N+](=O)[O-])cc1)N1CCc2cc(S(=O)(=O)N3C[C@@H](c4ccccc4)NC3=O)ccc21` returned an EC50 in data set [11] of 180 nM.
Consider `CCn1nc(C)cc1C(=O)/N=c1\[nH]c2cc(C(N)=O)ccc2n1C[C@@H](O)c1ccccc1`, for which 1400 nM corresponded to half-maximal inhibition in data set [19] (IC50).
In the case of `CCn1nc(C)cc1C(=O)Nc1nc2cc(C(N)=O)sc2n1C/C=C/Cn1c(NC(=O)c2cc(C)nn2CC)nc2cc(C(N)=O)cc(O[C@H]3CCOC3)c21`, the fold change (FC) in data set [1] was 80.3; in data set [2] it was 1.5. Besides, the 50% effective concentration (EC50) in data set [4] is 1860 nM; in data set [5], greater than 100000 nM.
On to `CCn1nc(C)cc1C(=O)Nc1nc2sc(C(N)=O)cc2n1CCCCn1c(NC(=O)c2cc(C)nn2CC)nc2cc(C(N)=O)cc(OCCCN3CCOCC3)c21`, for which the values for the fold change (FC) in data set [1] and in data set [2] were 1.15 and 1, respectively.
Turning to `CCn1nc(C)cc1C(=O)Nc1nc2cc(C(N)=O)sc2n1C/C=C/Cn1c(NC(=O)c2cc(C)nn2CC)nc2cc(C(N)=O)cc(OC3COC3)c21`, the figures for the fold change (FC) in [1] and in data set [2] were 49.2 and 10.2, respectively. Further, the EC50 in [4] is 1560 nM; in [5], greater than 100000 nM.
In [20], `O=C(NCc1ccco1)c1ccc2c(c1)N(Cc1c(F)cccc1Cl)C(=O)CS2` returned an EC50 of 2490 nM.

The EC50 is the concentration that produces a half-maximal response. In general, half-life refers to how long it takes for the measured level to halve. Lower therefore signals fast loss. What is called AUC(0-t) is the area under the concentration-time curve up to a stated or last time point. A lower AUC(0-t) goes with less exposure. What is called AUC(0-inf) is the area under the concentration-time curve extrapolated to infinity. Higher therefore signals more exposure. As a reminder, the clearance is the volume of plasma or blood freed of the substance per unit of time. A word on the IC50: it is the concentration that inhibits the measured activity by half. High values mean weaker potency in that assay, low ones greater potency in that assay.
